The values below come from article PMC7160231, “Identification and Immobilization of an Invertase With High Specific Activity and Sucrose Tolerance Ability of Gongronella sp. w5 for High Fructose Syrup Preparation” (Frontiers in Microbiology, 2020).

The test system of one test is T1, GspInv.
T1 construct: secreted from Komagataella (Pichia) pastoris GS115 with alpha-factor signal of pPIC9K; cDNA 1,761 bp; primer-encoded N-terminus MVLADP, C-terminus FNRP; catalytic D46, D173, E251
The test is described as follows: initial rate, released glucose by glucose oxidase method, Michaelis-Menten fit. It is filed as biochemical, Gongronella sp. w5. Conditions: 50 mM citrate-phosphate pH 5.0, 45°C, 1 mM-2 M sucrose. The source says: initial rate, released glucose by glucose oxidase method, Michaelis-Menten fit on GspInv

The next test relates to T2, CBM24DG-GspInv.
T2 construct: Clostridium thermocellum CBM24 fused to N-terminus of GspInv; secreted from K. pastoris GS115 (pPIC9K)
The description is as above. Conditions: 50 mM citrate-phosphate pH 5.0, 45°C, 1 mM-2 M sucrose; free (not immobilised) fusion enzyme. It is filed as biochemical, Gongronella sp. w5. The source says:
initial rate, released glucose by glucose oxidase method, Michaelis-Menten fit on CBM24DG-GspInv

By Km is commonly meant the substrate concentration at which the rate is half of its maximum. `OC[C@H]1O[C@@](CO)(O[C@H]2O[C@H](CO)[C@@H](O)[C@H](O)[C@H]2O)[C@@H](O)[C@@H]1O` [sucrose]: the Km with GspInv was found to be 8.7 ± 1.1 mM; in the test with CBM24DG-GspInv, 10.3 ± 1.2 mM.
